The source of these data is ChEMBL document CHEMBL4014331, “Design and Synthesis of Soluble and Cell-Permeable PI3Kδ Inhibitors for Long-Acting Inhaled Administration” (J Med Chem, 2017).

Data set [1] can be described thus: Lipophilicity, log D of the compound. In kind it is physicochemical. Particulars: octanol/water.
Data set [2] in a line: Metabolic stability in it dosed rat lungs assessed as compound remaining at 24 hrs post dose by LC-MS/MS analysis. In kind it is ADME, organism-based. Particulars: lung, inhaled or intranasal, read-out: Stability.
The nature of data set [3]: Metabolic stability in it dosed rat lungs assessed as compound remaining at 4 hrs post dose by LC-MS/MS analysis. In kind it is ADME, organism-based. Particulars: lung, inhaled or intranasal, read-out: Stability.
Data set [4] is described as follows: Solubility of the compound. In kind it is physicochemical.
Data set [5] concerns the target PI3-kinase p110-alpha/p85-alpha (Homo sapiens, UniProt P42336). As to the kind of experiment: Inhibition of recombinant human His6-tagged PI3K p110alpha/p85alpha using DiC8-PIP2 as substrate preincubated for 15 mins followed by substrate addition measured after 60 mins by ADP-Glo assay. In kind it is protein-complex assay. For orientation: ADP-Glo turns the ADP formed in a reaction into a luminescent signal.

In data set [6] the target is PI3-kinase p110-delta/p85-alpha (Homo sapiens, UniProt O00329). As to the kind of experiment: Inhibition of recombinant human His6-tagged PI3K p110delta/p85alpha using DiC8-PIP2 as substrate preincubated for 15 mins followed by substrate addition measured after 60 mins by ADP-Glo assay. In kind it is protein-complex assay.
For data set [7], the target named is T1, Phosphatidylinositol 4,5-bisphosphate 3-kinase catalytic subunit delta isoform (Homo sapiens, UniProt O00329).
T1 sequence (O00329 whole entry): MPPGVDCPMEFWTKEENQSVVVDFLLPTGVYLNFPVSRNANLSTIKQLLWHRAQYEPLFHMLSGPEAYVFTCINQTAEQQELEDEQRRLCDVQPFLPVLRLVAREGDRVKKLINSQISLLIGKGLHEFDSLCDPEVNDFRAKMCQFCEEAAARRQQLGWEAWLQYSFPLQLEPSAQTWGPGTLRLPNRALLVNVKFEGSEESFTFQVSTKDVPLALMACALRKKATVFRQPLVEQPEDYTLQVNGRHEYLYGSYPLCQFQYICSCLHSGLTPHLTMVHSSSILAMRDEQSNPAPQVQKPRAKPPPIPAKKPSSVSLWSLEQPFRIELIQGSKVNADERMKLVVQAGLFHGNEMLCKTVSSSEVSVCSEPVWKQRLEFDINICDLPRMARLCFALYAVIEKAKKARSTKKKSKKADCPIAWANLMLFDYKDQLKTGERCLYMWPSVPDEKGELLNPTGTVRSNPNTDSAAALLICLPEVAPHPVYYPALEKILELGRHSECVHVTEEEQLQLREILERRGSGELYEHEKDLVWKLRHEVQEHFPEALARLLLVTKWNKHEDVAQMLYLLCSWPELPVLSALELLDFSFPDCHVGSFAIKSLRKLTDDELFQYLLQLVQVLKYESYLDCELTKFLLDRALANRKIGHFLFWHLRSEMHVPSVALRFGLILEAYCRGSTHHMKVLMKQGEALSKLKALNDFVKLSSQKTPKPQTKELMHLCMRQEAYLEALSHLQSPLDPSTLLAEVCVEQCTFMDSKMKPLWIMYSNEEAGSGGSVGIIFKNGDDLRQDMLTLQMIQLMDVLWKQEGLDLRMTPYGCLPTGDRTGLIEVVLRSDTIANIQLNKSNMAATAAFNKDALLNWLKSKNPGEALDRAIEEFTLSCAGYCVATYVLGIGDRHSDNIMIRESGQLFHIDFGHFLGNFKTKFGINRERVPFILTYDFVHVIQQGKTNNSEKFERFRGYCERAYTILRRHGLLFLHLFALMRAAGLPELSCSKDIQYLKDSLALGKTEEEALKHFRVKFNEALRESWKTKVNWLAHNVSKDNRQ
As to the kind of experiment: Inhibition of PI3Kdelta in human JeKo1 cells assessed as reduction in Akt phosphorylation at Ser473 residue preincubated for 60 mins followed by Anti-IgM stimulation for 10 mins by TR-FRET assay. The format is cell-based. A general note: TR-FRET usually uses a lanthanide donor and a delayed reading to cut background.

Data set [8] concerns the target PI3K p110 beta/p85 alpha (Homo sapiens, UniProt P42338). The experiment in a line: Inhibition of recombinant human His6-tagged PI3K p110beta/p85alpha using DiC8-PIP2 as substrate preincubated for 15 mins followed by substrate addition measured after 60 mins by ADP-Glo assay. In kind it is protein-complex assay.
For data set [9], the target named is Phosphatidylinositol 4,5-bisphosphate 3-kinase catalytic subunit gamma isoform (Homo sapiens, UniProt P48736). The experiment in a line: Inhibition of recombinant human His6-tagged PI3Kgamma (144 to 1102 residues) using DiC8-PIP2 as substrate preincubated for 15 mins followed by substrate addition measured after 60 mins by ADP-Glo assay.
Data set [10] is described as follows: Metabolic stability in it dosed rat lungs assessed as compound remaining at 3 mins post dose by LC-MS/MS analysis. The format is ADME, organism-based. The settings on record: lung, inhaled or intranasal, read-out: Stability.
Data set [11] has as its system Mus musculus. As to the kind of experiment: In vivo inhibition of PI3Kdelta in ovalbumin-sensitized OT-2 transgenic C57BL/6-Tg-(Tcratcrb)425Cbn/Crl mouse assessed as reduction in S6RP phosphorylation at Ser235/236 residues in bronchoalveolar lung lavage administered […] 18 hrs prior to anti-CD3 stimulation measured after 6 hrs. In kind it is functional, organism-based.

The nature of data set [12]: Dissociation constant, acidic pKa of compound. The format is physicochemical.
The nature of data set [13]: Volume of distribution at steady state in iv or po dosed rat. The format is ADME, organism-based. Particulars: in vivo, read-out: Vdss.
Data set [14] in a line: Clearance in iv dosed rat. Particulars: in vivo. In kind it is ADME, organism-based.
The nature of data set [15]: Half life in iv or po dosed rat. In kind it is ADME, organism-based. Particulars: in vivo.
A short description of data set [16]: Oral bioavailability in rat. The settings on record: in vivo. The format is ADME, organism-based.
A short description of data set [17]: Dissociation constant, basic pKa of compound. The format is physicochemical.
Data set [18] in a line: Terminal half life in it dosed rat lung by LC-MS/MS analysis. The format is ADME, organism-based. Particulars: inhaled or intranasal, read-out: beta t1/2 (converted).
Data set [19] concerns the target hERG (KCNH2) (Homo sapiens, UniProt Q12809). The experiment in a line: Inhibition of human ERG at 11 uM relative to control.

Converted amounts (≈) assume the structure as drawn.

Chain of Phosphatidylinositol 4,5-bisphosphate 3-kinase catalytic subunit gamma isoform (P48736 whole entry, the tested form may be a part, canonical isoform): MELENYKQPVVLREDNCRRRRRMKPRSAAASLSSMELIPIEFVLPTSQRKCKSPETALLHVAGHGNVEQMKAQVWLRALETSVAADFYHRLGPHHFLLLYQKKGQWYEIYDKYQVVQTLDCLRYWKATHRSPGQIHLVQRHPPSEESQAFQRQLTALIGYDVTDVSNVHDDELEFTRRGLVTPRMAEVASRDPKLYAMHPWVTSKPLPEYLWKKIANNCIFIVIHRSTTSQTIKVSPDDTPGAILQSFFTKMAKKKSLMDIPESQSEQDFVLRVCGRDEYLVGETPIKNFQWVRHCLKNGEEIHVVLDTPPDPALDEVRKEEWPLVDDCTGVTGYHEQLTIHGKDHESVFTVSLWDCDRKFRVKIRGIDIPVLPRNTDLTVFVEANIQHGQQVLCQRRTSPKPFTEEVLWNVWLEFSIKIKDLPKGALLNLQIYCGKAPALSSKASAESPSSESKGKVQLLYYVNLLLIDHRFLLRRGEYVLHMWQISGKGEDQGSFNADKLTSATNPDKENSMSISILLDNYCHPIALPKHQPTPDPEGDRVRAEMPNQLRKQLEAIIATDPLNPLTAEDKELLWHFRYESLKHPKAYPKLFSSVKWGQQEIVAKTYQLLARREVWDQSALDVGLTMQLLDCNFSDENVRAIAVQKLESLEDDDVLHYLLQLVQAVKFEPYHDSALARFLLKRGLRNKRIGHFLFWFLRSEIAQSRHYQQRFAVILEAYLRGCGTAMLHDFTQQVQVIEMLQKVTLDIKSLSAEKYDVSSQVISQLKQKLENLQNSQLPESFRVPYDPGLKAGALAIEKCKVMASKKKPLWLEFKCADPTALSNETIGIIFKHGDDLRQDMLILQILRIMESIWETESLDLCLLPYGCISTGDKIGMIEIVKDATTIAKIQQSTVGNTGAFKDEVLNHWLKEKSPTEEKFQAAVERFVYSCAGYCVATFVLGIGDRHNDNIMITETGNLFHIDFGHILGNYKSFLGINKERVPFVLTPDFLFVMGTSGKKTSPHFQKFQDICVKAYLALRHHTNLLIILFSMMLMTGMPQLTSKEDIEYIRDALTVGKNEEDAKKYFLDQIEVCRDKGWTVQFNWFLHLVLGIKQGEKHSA
Chain of PI3-kinase p110-alpha/p85-alpha (P27986 whole entry): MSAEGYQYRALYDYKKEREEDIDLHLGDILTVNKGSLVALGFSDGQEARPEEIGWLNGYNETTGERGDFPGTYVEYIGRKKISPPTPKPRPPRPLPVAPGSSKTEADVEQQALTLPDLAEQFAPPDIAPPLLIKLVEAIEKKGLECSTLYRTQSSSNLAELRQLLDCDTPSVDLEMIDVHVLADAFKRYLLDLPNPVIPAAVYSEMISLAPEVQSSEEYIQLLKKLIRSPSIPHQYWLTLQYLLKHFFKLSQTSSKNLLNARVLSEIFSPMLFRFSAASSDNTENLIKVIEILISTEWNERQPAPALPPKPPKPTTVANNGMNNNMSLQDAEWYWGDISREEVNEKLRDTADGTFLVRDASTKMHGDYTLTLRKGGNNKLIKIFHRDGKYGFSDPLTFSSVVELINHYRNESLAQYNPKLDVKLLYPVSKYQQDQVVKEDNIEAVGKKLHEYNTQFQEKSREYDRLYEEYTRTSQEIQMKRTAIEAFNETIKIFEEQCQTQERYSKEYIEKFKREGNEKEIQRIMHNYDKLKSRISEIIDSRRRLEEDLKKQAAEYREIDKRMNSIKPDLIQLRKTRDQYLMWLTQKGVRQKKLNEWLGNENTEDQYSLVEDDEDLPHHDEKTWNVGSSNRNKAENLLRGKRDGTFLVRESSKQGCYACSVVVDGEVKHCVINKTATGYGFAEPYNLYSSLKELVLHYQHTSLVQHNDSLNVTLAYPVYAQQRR
Chain of PI3-kinase p110-alpha/p85-alpha (P42336 whole entry): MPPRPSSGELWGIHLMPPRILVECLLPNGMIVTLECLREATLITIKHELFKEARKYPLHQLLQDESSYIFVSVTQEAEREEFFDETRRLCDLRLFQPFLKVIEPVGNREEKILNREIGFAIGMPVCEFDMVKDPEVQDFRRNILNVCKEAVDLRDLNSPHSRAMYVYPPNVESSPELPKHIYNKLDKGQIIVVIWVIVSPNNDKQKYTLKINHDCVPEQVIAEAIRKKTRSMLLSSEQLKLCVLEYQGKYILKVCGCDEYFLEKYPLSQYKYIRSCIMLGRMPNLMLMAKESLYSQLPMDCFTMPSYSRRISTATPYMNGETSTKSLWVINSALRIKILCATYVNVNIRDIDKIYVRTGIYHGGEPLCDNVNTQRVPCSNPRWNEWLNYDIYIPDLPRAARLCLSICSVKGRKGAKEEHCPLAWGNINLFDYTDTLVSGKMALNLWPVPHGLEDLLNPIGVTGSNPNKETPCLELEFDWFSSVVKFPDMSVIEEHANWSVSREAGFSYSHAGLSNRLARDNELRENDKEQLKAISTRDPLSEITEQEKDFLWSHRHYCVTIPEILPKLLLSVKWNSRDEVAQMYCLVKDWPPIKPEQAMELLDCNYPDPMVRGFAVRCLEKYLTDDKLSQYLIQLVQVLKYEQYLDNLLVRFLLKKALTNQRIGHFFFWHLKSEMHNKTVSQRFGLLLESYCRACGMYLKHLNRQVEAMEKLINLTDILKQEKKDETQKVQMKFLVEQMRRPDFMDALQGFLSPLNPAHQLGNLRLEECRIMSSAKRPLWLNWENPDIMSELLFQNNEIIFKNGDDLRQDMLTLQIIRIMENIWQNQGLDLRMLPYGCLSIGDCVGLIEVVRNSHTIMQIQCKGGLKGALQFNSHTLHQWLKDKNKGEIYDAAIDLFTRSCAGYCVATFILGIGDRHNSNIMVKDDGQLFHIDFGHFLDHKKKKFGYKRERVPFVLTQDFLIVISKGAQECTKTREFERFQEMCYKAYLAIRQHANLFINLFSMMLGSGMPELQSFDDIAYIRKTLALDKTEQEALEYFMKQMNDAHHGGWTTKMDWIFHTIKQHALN
Chain of PI3K p110 beta/p85 alpha (P27986 whole entry, the tested form may be a part, canonical isoform): as the sequence (P27986 whole entry) above
Chain of PI3K p110 beta/p85 alpha (P42338 whole entry, the tested form may be a part, canonical isoform): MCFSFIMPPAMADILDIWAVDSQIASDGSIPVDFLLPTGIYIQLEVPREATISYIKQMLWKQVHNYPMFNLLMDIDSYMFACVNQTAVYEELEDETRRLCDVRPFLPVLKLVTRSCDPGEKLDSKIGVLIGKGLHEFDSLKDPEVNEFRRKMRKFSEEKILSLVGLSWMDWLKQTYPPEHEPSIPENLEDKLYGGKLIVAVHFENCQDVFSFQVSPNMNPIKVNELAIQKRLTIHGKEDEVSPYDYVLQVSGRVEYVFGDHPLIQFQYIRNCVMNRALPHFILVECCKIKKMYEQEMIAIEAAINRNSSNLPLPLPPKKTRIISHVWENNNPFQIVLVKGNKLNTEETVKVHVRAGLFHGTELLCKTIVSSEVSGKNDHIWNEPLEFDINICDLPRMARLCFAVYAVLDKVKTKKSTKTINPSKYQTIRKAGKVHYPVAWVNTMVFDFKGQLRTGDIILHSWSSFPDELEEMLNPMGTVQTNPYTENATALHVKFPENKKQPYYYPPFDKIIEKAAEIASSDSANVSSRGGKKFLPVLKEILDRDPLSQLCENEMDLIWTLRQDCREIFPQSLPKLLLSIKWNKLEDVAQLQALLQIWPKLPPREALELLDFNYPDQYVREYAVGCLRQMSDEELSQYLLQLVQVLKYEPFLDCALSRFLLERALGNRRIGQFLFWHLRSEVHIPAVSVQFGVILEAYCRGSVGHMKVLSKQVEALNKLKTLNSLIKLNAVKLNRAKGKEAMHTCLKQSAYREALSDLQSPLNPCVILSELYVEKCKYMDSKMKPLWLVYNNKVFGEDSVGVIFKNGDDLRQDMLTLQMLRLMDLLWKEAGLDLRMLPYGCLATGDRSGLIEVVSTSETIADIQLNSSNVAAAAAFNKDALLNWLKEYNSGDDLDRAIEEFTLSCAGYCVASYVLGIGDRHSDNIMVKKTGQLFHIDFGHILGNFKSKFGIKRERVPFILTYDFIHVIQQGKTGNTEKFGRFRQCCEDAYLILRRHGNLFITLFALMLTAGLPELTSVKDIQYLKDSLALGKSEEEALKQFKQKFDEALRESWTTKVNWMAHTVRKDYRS
Chain of PI3-kinase p110-delta/p85-alpha (P27986 whole entry, one chain of several, canonical isoform): as the sequence (P27986 whole entry) above

As usually defined, the logD is the decadic logarithm of the distribution of all forms, ionised or not, between an organic phase and buffer at a given pH. Lower therefore signals a more hydrophilic compound. As a reminder, the solubility is how much of the substance goes into solution per volume. A low value points to little dissolved substance. In general, IC50 refers to the concentration that inhibits the measured activity by half. Regarding `Cc1csc2cc([C@H](C)Nc3ncnc(N)c3C#N)c(-c3cccc(CN(C)CC(C)C)c3)c(=O)n12`, the logD in [1] came to 2.3. In [2], the remaining at 24 h turned out to be 0%. The remaining at 4 h in data set [3] was 0%. In [4], this compound registered a solubility of 12 µM (≈ 6.02 µg/mL). Also, the IC50 in data set [5] is 2 µM; in [6], 0.000501 µM; in data set [7], 0.000631 to 0.00158 µM; in data set [8], 0.1 µM; in [9], above 0.794 µM. For the same compound, in data set [10], the remaining at 0.05 h was 6.5%.

One may read the inhibition as how much of the control response was suppressed. What is called pKa is the negative logarithm of the acid dissociation constant. By clearance is commonly meant the rate of elimination divided by the concentration. Low values mean inefficient removal, high ones efficient removal. One may read the bioavailability as dose-corrected exposure relative to a reference, in per cent. Low readings indicate little systemic uptake, high ones much systemic uptake. Turning to `Cc1csc2cc([C@H](C)Nc3ncnc(N)c3C#N)c(-c3cccc(CN4CCC(N(C)C)CC4)c3)c(=O)n12`, in data set [1], the logD came out at 0.5. The inhibition result in data set [11] was “Dose-dependent effect”. In addition, the remaining at 24 h in data set [2] was 4.8%. Also, the pKa in data set [12] was found to be 9.5; in data set [17] it was 6.5. Further, in data set [13], the Vd turned out to be 12 L/kg. The compound further displayed a clearance in data set [14] of 57 mL/min/kg. The IC50 was at least 0.631 µM in [5]; 0.000501 µM in [6]; 0.01 µM in data set [7]; 0.0631 µM in data set [8]; at least 0.2 µM in data set [9]. The half-life was 12 h in [15] and 23.2 h in data set [18]. In addition, the bioavailability in data set [16] was below 1%. The compound also gave an inhibition at 11 µM in data set [19] below 20%.

In [1], `Cc1csc2cc([C@H](C)Nc3ncnc(N)c3C#N)c(-c3cccc(CN4CCC(N(C)CC(C)C)CC4)c3)c(=O)n12` returned a logD of 1.7. Besides, the inhibition entry in [11] is “Dose-dependent effect”. In addition, in [2], the remaining at 24 h is 2.8%. Besides, the pKa was 9.7 in [12] and 6.8 in data set [17]. For the same compound, the Vd in data set [13] is 88 L/kg. For the same compound, the clearance in [14] worked out at 150 mL/min/kg. The IC50 was at least 0.631 µM in data set [5]; 0.000631 µM in data set [6]; 0.00126 µM in data set [7]; 0.0794 µM in data set [8]; at least 0.2 µM in [9]. For the same compound, the half-life in data set [15] was 11 h; in data set [18], 9.9 h. The same compound yielded a bioavailability in [16] below 1%. Further, the inhibition at 11 µM in data set [19] is below 20%.

Consider `Cc1csc2cc([C@H](C)Nc3ncnc(N)c3C#N)c(-c3ccccc3)c(=O)n12`, for which the logD in data set [1] worked out at 2.7. Moreover, the remaining at 24 h in data set [2] amounted to 0%. For the same compound, in data set [3], the remaining at 4 h was determined as 0%. In addition, the solubility in [4] turned out to be 77 µM (≈ 31 µg/mL). Also, the IC50 was 0.631 µM in data set [5]; 0.000398 µM in [6]; 0.000631 to 0.000794 µM in data set [7]; 0.0501 µM in data set [8]; 0.0126 µM in data set [9]. Besides, the half-life in data set [18] is below 0.1 h. For the same compound, the remaining at 0.05 h in data set [10] was found to be 2%.

Compound `Cc1csc2cc([C@H](C)Nc3ncnc(N)c3C#N)c(-c3cccc(CNCCCCOCCc4ccccc4)c3)c(=O)n12` registered a logD in data set [1] of 2.3. Besides, in data set [2], the remaining at 24 h was found to be 0%. Further, in [3], the remaining at 4 h is 4.8%. Further, the concentration in solution in data set [4] (solubility) came to 699 µM (≈ 425 µg/mL). For the same compound, the IC50 in data set [5] was 0.501 µM; in data set [6], 0.000398 µM; in data set [7], 0.00126 µM; in data set [8], 0.00794 µM; in data set [9], 0.316 µM. Besides, in data set [18], the half-life was 3.5 h.
